# Assay: in vitro
# Settings: human, hela cells, % viability
row,Structure (SMILES),"viability at 28.5 h, 10 µM [%]"
1,Cc1cc(OCC(C)C)ccc1C(=O)C1=C(O)C(=O)N(Cc2cccnc2)C1c1cccnc1 (stereo not drawn) [CBK264883],97.6
2,O=C(COc1ccc2ccccc2c1)Oc1ccc2ccccc2c1 [CBK264885],110
3,CC(C)Oc1ccc(C(=O)C2=C(O)C(=O)N(CCN(C)C)C2c2ccccc2F)cc1 (stereo not drawn) [CBK264886],102
4,Cc1cc(Cl)ccc1NC(=S)NCCc1ccc(S(N)(=O)=O)cc1 [CBK264888],88.5
5,O=C1CC(c2ccccc2)CC(NCc2ccc3c(c2)OCO3)=C1C(=S)Nc1ccccc1 (stereo not drawn) [CBK264890],94.4
6,COc1ccc(-n2c(SC(CN3CCCCC3)CN3CCCC3=O)nc3ccccc3c2=O)cc1 (stereo not drawn) [CBK264891C],87.8
7,COCCCN1C(=O)C(O)=C(C(=O)c2ccc(Cl)cc2)C1c1cccc(O)c1 (stereo not drawn) [CBK264892],105
8,CCN(CC)CCCNc1c([N+](=O)[O-])c(=O)n(C)c2ccccc12 [CBK264893],112
9,CC(=O)Nc1sc(/C(C#N)=C/c2cccc(Oc3ccccc3)c2)nc1-c1ccc(C)cc1 [CBK264895],98.4
10,COc1cccc(C2C(C(=O)c3ccc(C)o3)=C(O)C(=O)N2CCN2CCOCC2)c1 (stereo not drawn) [CBK264899],92.8
11,COc1cccc(C2C(C(=O)c3ccc(Cl)cc3)=C(O)C(=O)N2CCN2CCOCC2)c1 (stereo not drawn) [CBK264901],90
12,CC(C)CNC(=O)C(=O)NCCc1ccc(F)cc1 [CBK264903],105
13,O=C(COc1ccc(Cl)cc1Cl)OCCNC1=NS(=O)(=O)c2ccccc21 [CBK264905],110
14,CC(C)Oc1ccc(C(=O)C2=C(O)C(=O)N(CCN(C)C)C2c2ccncc2)cc1 (stereo not drawn) [CBK264907],90.3
15,COc1cc(C(=O)Oc2cccc(Nc3ncnc4ccccc34)c2)cc(OC)c1OC [CBK264908],109
16,O=C(NCN1CCN(c2ccc([N+](=O)[O-])cc2)CC1)c1cccnc1 [CBK264909],106
17,Cc1cccc(CN(CC(=O)Nc2ccc3c(c2)OCCO3)S(=O)(=O)c2ccc(Cl)cc2)c1 [CBK264910],91.9
18,O=C(O)c1ccc(N2CCN(CCO)CC2)c([N+](=O)[O-])c1 [CBK264911C],100
19,COc1cccc(-c2nc(SCC(=O)Nc3ccc([N+](=O)[O-])cc3)[nH]c(=O)c2C#N)c1 [CBK264912],105
20,O=[N+]([O-])c1ccc(NC(=S)NCCCn2ccnc2)cc1 [CBK264915],93.3
21,O=C(CSCc1ccccc1)Nc1ccc2c3c(cccc13)CC2 [CBK264916],107
22,O=C1c2ccccc2CN1CCNS(=O)(=O)c1ccc2oc3ccccc3c2c1 [CBK264918],98.9
23,Cc1cccc(NC(=S)N2CCN(Cc3ccc4c(c3)OCO4)CC2)c1C [CBK264919],82.7
24,COc1cccc(C2C(C(=O)c3ccc(Br)cc3)=C(O)C(=O)N2CCCN(C)C)c1 (stereo not drawn) [CBK264921],84.5
25,O=C(Oc1ccc(F)cc1C(=O)/C=C/c1cccs1)c1ccc([N+](=O)[O-])cc1 [CBK264925],91.2
26,S=C(NCCc1ccccc1)NCCN1CCOCC1 [CBK264929],87.4
27,O=C(NC(=S)Nc1ccc(-c2nc3ccccc3o2)c(O)c1)c1cncc(Br)c1 [CBK264931],97

row,Structure (SMILES),"viability at 28.5 h, 10 µM [%]"
1,O=C(C1=C(O)C(=O)N(c2ncccn2)C1c1cccc([N+](=O)[O-])c1)c1ccc(F)cc1 (stereo not drawn) [CBK264932],85.2
2,CCc1cccc2c(/C=C3/SC(=S)N(CC(=O)O)C3=O)c[nH]c12 [CBK264937],94
3,Cc1[nH]nc(-c2ccc(OCc3cnn(-c4ccccc4)c3)cc2O)c1Oc1ccc(Cl)cc1 [CBK264939],86.8
4,CCOC(=O)CC(=O)CSc1nc(N)c2c3c(sc2n1)CCCC3 [CBK264942],120
5,O=C(NCCCNc1c(Cl)cccc1[N+](=O)[O-])c1ccc(F)cc1 [CBK264943],99.4
6,CC(=O)Nc1ccc(S(=O)(=O)N2CCN(c3ccc([N+](=O)[O-])cc3C(F)(F)F)CC2)cc1 [CBK264944],112
7,Cc1ccc(S(=O)(=O)NCCNc2ccc(C(F)(F)F)cc2[N+](=O)[O-])cc1 [CBK264945],90.4
8,O=c1oc2c(CN3CCN(CCO)CC3)c(O)ccc2cc1-c1nc(-c2ccc(Br)cc2)cs1 [CBK264949],103
9,COc1ccc(-c2nc3cc(NC(=O)c4ccccc4Br)ccc3o2)cc1 [CBK264953],95.5
10,Cc1ccc(OCC(=O)NC(=S)Nc2cc(C(=O)O)ccc2C)cc1C [CBK264955],92.8
11,COc1cc(C2NC(=O)NC(O)(C(F)(F)F)C2C(=O)c2ccccc2)ccc1OCc1ccccc1 (stereo not drawn) [CBK264957],114
12,NS(=O)(=O)c1ccc(NS(=O)(=O)c2ccc(NC(=O)C3CC3)cc2)cc1 [CBK264958],103
13,O=C(O)c1ccccc1NC(=S)NC(=O)c1ccccc1[N+](=O)[O-] [CBK264963],96.2
14,Sc1nnc(COc2ccc(-c3ccccc3)cc2)n1-c1ccccc1 [CBK264964],105
15,CC1CCN(S(=O)(=O)c2ccc(NC(=O)COc3ccc4ccccc4c3)cc2)CC1 [CBK264969],96.7
16,O=C(CC(C(=O)O)P(=O)(c1ccccc1)c1ccccc1)c1ccccc1 (stereo not drawn) [CBK264971],114
17,CN(C)c1nc(Oc2ccc(OCCOc3ccccc3)nn2)nc(N(C)C)n1 [CBK264976],104
18,CN(C)S(=O)(=O)c1ccc(C(=O)Nc2ccc(-c3ccccc3)cc2)cc1 [CBK264978],96.2
19,CC1(C(=O)O)NC(c2ccccc2O)C2C(=O)N(c3ccccc3[N+](=O)[O-])C(=O)C21 (stereo not drawn) [CBK264979],107
20,Cc1ccc(S(=O)(=O)Nc2nc(C)c(NC(=O)Nc3ccc(Cl)cc3Cl)s2)cc1 [CBK264982],85.8
21,Cn1c(SCc2c(Cl)cccc2[N+](=O)[O-])nnc1-c1ccc(NC(=O)c2ccccc2Cl)cc1 [CBK264983],81.1
22,COc1ccc(CCNC(=O)C2CCN(S(=O)(=O)c3ccccc3)CC2)cc1 [CBK264985],95
23,CCOC(=O)Cc1cc(O)nc(NC(=N)Nc2ccc(C)cc2C)n1 [CBK264986],104
24,O=c1c2ccccc2nc(CSc2[nH]cnc3ncnc2-3)n1-c1cccc(C(F)(F)F)c1 [CBK264991],105
25,CC1CCN(S(=O)(=O)c2ccc(NC(=O)COc3ccc([N+](=O)[O-])cc3)cc2)CC1 [CBK264994],95.4
26,Cc1ccc(S(=O)(=O)Nc2ccccn2)c(C)c1C [CBK264995],90
27,Cc1ccc(C(=O)O)cc1NC(=S)NC(=O)c1ccc(-c2ccccc2)cc1 [CBK264997],92.7

row,Structure (SMILES),"viability at 28.5 h, 10 µM [%]"
1,CCN(Cc1ccccc1)c1ccc(C2NC(=O)NC(O)(C(F)(F)F)C2C(=O)c2cccnc2)cc1 (stereo not drawn) [CBK264999],91.7
2,Cc1ccc(OCC(=O)NC(=S)Nc2cc(C(=O)O)ccc2C)cc1 [CBK265000],96.8
3,Cn1c(SCc2ccc([N+](=O)[O-])cc2)nnc1-c1ccc(NC(=O)c2ccccc2Cl)cc1 [CBK265001],111
4,COc1ccc(-c2c(-c3ccc(OCc4cnn(-c5ccccc5)c4)c(C)c3O)n[nH]c2C)cc1 [CBK265006],92.5
5,COC(=O)c1sc(NC(=O)c2cccnc2)c(C#N)c1C [CBK265007],89.4
6,CC(C)(C)OC(=O)NCCC(=O)Oc1ccc2c3c(c(=O)oc2c1)CCCC3 [CBK265008],89.3
7,O=[N+]([O-])c1cc(-c2nc(-c3cccs3)c(-c3cccs3)[nH]2)ccc1Br [CBK265009],102
8,CN(C)S(=O)(=O)Nc1ccc(Cc2ccncc2)cc1 [CBK265011],115
9,CCOC(=O)c1c(NC(=O)C2CCCN2S(=O)(=O)c2ccccc2)sc2c1CCCC2 (stereo not drawn) [CBK265012],92
10,O=C(O)c1cccc(NC(=S)NC(=O)c2ccc(-c3ccc(Br)cc3)o2)c1 [CBK265014],95.6
11,Nc1nc(-n2cnnc2)nn1-c1ccccc1 [CBK265015],97.2
12,Cc1ccc(NC(=O)CN2C(=O)N/C(=C\c3cc(Br)cc(Cl)c3O)C2=O)cc1 [CBK265018],98.7
13,Cc1n[nH]c(O)c1C(c1ccc(OC(=O)c2ccccc2)cc1)c1c(C)n[nH]c1O [CBK265019],109
14,Nc1cc(=O)[nH]c(SCC(=O)Nc2ccc(S(N)(=O)=O)cc2)n1 [CBK265021],91.2
15,Cc1ccc(C(=O)CC(C(=O)O)P(=O)(c2ccccc2)c2ccccc2)cc1 (stereo not drawn) [CBK265022],90.1
16,O=C(/C=C/c1ccccc1)N/C(=C/c1ccccc1)C(=O)Nc1ccc2ccccc2c1 [CBK265023],89.6
17,CC(C)c1ccc(/C=C/C(=O)NC(=S)Nc2cccc(C(=O)O)c2)cc1 [CBK265024],94.3
18,CC(=O)CSc1nnc(COc2ccc(C3CCCCC3)cc2)n1-c1ccccc1 [CBK265026],116
19,O=C(/C=C/c1ccc([N+](=O)[O-])cc1)c1ccc(O)c(O)c1 [CBK265028],105
20,COCCN(CCOC)Cc1c(C)nc2c(C)c(C)ccc2c1O [CBK265031],102
21,Cc1oc(C(C)(C)C)cc1C(=O)NCCNc1c(Cl)cccc1[N+](=O)[O-] [CBK265032],119
22,Cn1c(SCc2cccc3ccccc23)nnc1-c1ccc(NC(=O)/C=C/c2ccccc2)cc1 [CBK265034],114
23,CC(C)CC12CN3CCN(CC(C3)/C1=N\N=C1/C3CN4CCN(C3)CC1(CC(C)C)C4)C2 [CBK265036],99.1
24,Cn1c(Cc2ccccc2)nnc1Sc1ccc(C(=O)O)cc1[N+](=O)[O-] [CBK265038],99.6
25,COc1ccccc1CN(CN1C(=O)c2ccccc2C1=O)CN1C(=O)c2ccccc2C1=O [CBK265039],94.9

# Same assay, conditions: human, hela cells, % viability, bulk resorufin, single well
row,Structure (SMILES),"viability at 28.5 h, 10 µM [%]"
1,C=CCN1C(=O)/C(=C/c2cc(Cl)c(OCc3cccc(C(=O)O)c3)c(OC)c2)C(=O)NC1=S [CBK264877G],121
2,Cc1cccc(N2C(=O)NC(=O)C(CCc3ccncc3)(CCc3ccncc3)C2=O)c1 [CBK264898],96.3

# Reference: article PMC12040169 (PLOS Biology, 2025)
